Several values for one entry are separate records, joined by “and”; a condition that tells them apart may be missing. Equal entries are not always repeated.
Legend:
[1] = test system: Tet-ON mdaB::ptetR; urePtetO strains; test: In vivo induction of urePtetO by doxycycline, C57BL/6J infection model; design: species or system H. pylori; settings: for dox concentration at which the strain could be re-isolated: one week of infection, C57BL/6J mice
Experimental: Regulation of urePtetO to drive the expression of urease by dox was evaluated using a C57BL/6J infection model. Mice were orally challenged with one of several Tet-ON, mdaB::ptetR; urePtetO strains and supplemented with a range of dox concentrations that were within the tolerance of X47. Urease is known to be an essential gene required for colonization, and therefore Tet-ON urePtetO strains should not be able to colonize in the absence of the inducer. […] Infection of urePtetO strains is dependent on dox supplementation (FIG. 9F). Mice were supplemented with dox for two weeks after infection to establish successful colonization of mdaB:: ptetR4; urePtetOI. […] Infection by strain mdaB::ptetR4; urePtetOI could be maintained for at least 4 weeks with dox supplementation.
6-7 week old C57BL/6J female mice were orally gavaged once with 200 μL of 1×10^9 CFU/mL bacteria, that had been passaged on CBA plates containing 50 ng/mL ATc to induce expression of tetracycline responsive genes. Mice were supplemented with doxycycline in their drinking water containing 5% sucrose. Mice were sacrificed at indicated time points and stomachs were removed and homogenized in 1 mL BHI using a tissue lysing agent (Retch). Homogenates were serially diluted and plated out on H. pylori selective plates, (CBA containing 5% Horse blood, Dent, polymyxin B 2500 U/L or 0.2975 mg/L, nalidixic acid 10 mg/L and Bacitracin 100 mg/L). Colonies were counted to calculate bacteria load. Re-isolated clones were checked for tet responsive gene expression and sequenced when appropriate.

H. pylori = test: Minimal inhibitory concentration of ATc in liquid culture; assay type: cell-based; settings: MIC as measured in liquid culture; maximal induction at 100 ng/mL
[2] = test system: urePtetO promoters (UreB subunit); test: Immunoblotting of UreB in urePtetO strains; assay type: cell-based, H. pylori
Experimental: (§1) Immunoassays—SDS-PAGE and Western Blot Analysis
(§2) Whole cell lysates of bacteria growing on either chloramphenicol or streptomycin plates was resuspended in phosphate-buffered saline (PBS) buffer. Cells were pelleted and resuspended in lysis buffer (50 mM Tris-HCl, 250 mM NaCl, 1% triton X-100) and incubated on ice for 15 min. Samples were then sonicated for 10 sec. Insoluble cell debris was removed by centrifugation at 13,000 rpm form 10 min at 4° C. Cell lysates were mixed with sodium dodecyl sulfate (SDS) sample buffer and incubated at 95° C. for 10 min. The proteins were separated by 10% SDS-polyacrylamide gel electrophoresis (PAGE) and electrotransferred to a pvdf (0.22 μm Immobulon, Millipore) membrane at 4° C. with a constant voltage of 90 V in transfer buffer (192 mM glycine, 25 mM Tris, 20% [vol/vol] methanol) for 2 hours. The membrane was blocked by using 2% BSA (Sigma) in PBST (150 mM NaCl, 10 mM Tris-C1, pH 7.0, 0.1% [vol/vol] Tween 20) and then incubated with the appropriate primary antibody, washed and then incubated with a secondary antibody containing a horseradish peroxidise (HRP) conjugate. The membrane was washed again and detection of secondary HRP conjugate was accomplished by chemiluminescence (Sigma). For detection of TetR and revTetR, rabbit polyclonal IgG anti TetR (MoBiTec) at a dilution of 1:2000 was used as the primary. For detection of UreB subunit, mouse monoclonal IgG anti UreB (Austral Biologicals) was used at a dilution of 1:8000. For detection of GFP, rabbit polyclonal anti GFP (Ondek) was used at a dilution of 1:2000. Secondary antibodies, mouse anti-rabbit-HRP and rabbit anti-mouse-HRP (Jackson ImmunoResearch Laboratories) were used at a dilution of 1:10,000. Chemiluminescence was detected using LAS 3000 (Fujifilm)(software Image reader LAS 3000 V2.2)

TetR = TetR (Escherichia coli, UniProt P0ACT4, D23E/I36V/T20V); settings: cited from earlier work
Chain of TetR (P0ACT4 with tags, fused parts or gaps T20V/D23E/I36V): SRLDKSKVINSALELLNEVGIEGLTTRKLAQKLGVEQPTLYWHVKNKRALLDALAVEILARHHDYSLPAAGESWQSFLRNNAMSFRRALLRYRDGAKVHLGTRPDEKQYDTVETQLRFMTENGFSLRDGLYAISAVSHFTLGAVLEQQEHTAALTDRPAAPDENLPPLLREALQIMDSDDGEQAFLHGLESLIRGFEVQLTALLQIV

[3] = test system: urePtetO induction of Tet-ON strains; test: Urease plate assay; assay type: cell-based, H. pylori; settings: for ATc concentration at which significant urease activity is detected: after 24 h
[4] = test system: B128 pHel2-IEC-Ts-FliCsyn transconjugants; test: Immunoblotting of conditional fliCsyn expression; assay type: cell-based, H. pylori; settings: selective blood agar plates with 50 ng/ml ATc; all tested clones
Experimental: The conditional expression of fliCsyn and expression of TetRs in the transconjugants B128 pHel2-IEC-Ts-FliCsyn was analyzed by immunobloting.
Bacteria were grown for 24 hours on selective plates or in selective liquid media. Cells were harvested and resuspended in phosphate-buffered saline (PBS) buffer. Samples were then sonicated for 10 seconds, mixed with sodium dodecyl sulfate (SDS) sample buffer and incubated at 37° C. for 15 min. Insoluble cell debris was removed by centrifugation at 13,000 rpm for 1 min. The proteins were separated by 10% SDS-polyacrylamide gel electrophoresis (PAGE) and electro-transferred to a PVDF membrane (Immobilon-P Transfer (0.45 μm, Millipore) with a constant voltage of 100 V in transfer buffer (192 mM glycine, 25 mM Tris, 20% [vol/vol] methanol) for 1 hour. The membranes were blocked with 3% BSA (Sigma) in PBST (150 mM NaCl, 10 mM Tris-C1, pH 7.0, 0.1% [vol/vol] Tween 20) and then incubated with the appropriate primary antibody, washed and then incubated with a secondary antibody containing a horseradish peroxidise (HRP) conjugate. The membrane was washed again and detection of secondary HRP conjugate was accomplished by chemiluminescence (Sigma). For detection of Cre recombinase, rabbit polyclonal IgG anti Cre (abcam) was used at a dilution of 1:1000. […] Chemiluminescence was detected using LAS 3000 (Fujifilm)(software Image reader LAS 3000 V2.2)

urease activity = test: Urease disc diffusion assay; assay type: cell-based, H. pylori; settings: plate inoculated with untreated bacteria
Experimental: Bacteria were plated onto urease plates, and blank discs were placed onto the inoculated plate. 10 μL of ATc was placed onto each disc and plates were incubated under microaerophilic conditions and examined for colour change every […].

[5] = test system: urease activity of X47 urePtetO strains; test: Liquid urease activity assay; assay type: cell-based, H. pylori
Experimental: Bacteria were grown on CBA plates with or without 50 ng/mL ATc for two successive passages. Bacteria were resuspended in cold buffer A (25 mM phosphate buffer, pH 6.8) and standardized to an OD600 of 4.0. 50 μL of standardized bacterial suspension was diluted with 50 μL of buffer B (25 mM phosphate buffer, pH 6.8, 0.2% tween-20). In 96 well plate, 25 μL of diluted bacterial suspension was diluted with 150 μL of buffer C (25 mM phosphate buffer, pH 6.8, 250 μM phenol red) and incubated for 5 min at 37° C. 75 μL of urea solution (0.5 M) was then added and the absorbance at 560 nm was measured every 72 seconds for 75 cycles using a POLARstar Omega (BGM Labtech) platereader. Activity was measured as the rate of change in absorbance over time and expressed as percent of urease activity of the wild-type parent strain. All urease activity measurements were carried out in triplicate and experiments were repeated three times.

[6] = test system: TetR-controlled GFP expression; test: Kinetics of uPtetO1-GFP induction by immunoblotting; assay type: cell-based, H. pylori
Experimental: as §1
as §2, with “For detection of TetR and revTetR, rabbit polyclonal IgG anti TetR (MoBiTec) at a dilution of 1:2000 was used as the primary. For detection of UreB subunit, mouse monoclonal IgG anti UreB (Austral Biologicals) was used at a dilution of 1:8000. For detection of GFP, rabbit polyclonal anti GFP (Ondek) was used at a dilution of 1:2000. Secondary antibodies, mouse anti-rabbit-HRP and rabbit anti-mouse-HRP (Jackson ImmunoResearch Laboratories) were used at a dilution of 1:10,000.” left out

[7] = test system: TetR-controlled GFP expression (uPtetO-GFP); test: GFP reporter assay, liquid culture (BHI), induction by ATc; assay type: cell-based, H. pylori; settings: for induction of GFP expression: 100 ng/mL ATc, BHI media
Experimental: 5 mL cultures were grown for 14 h and then induced with 200 ng/mL ATc unless otherwise stated. Bacteria were harvested by centrifugation, washed twice with PBS and resuspended to a density of 20D600. Then, 0.1 ml of the bacterial suspension was transferred into black 96-well plates, and fluorescence at 520 nm after excitation at 485 nm was measured in using the POLARstar Omega platereader.

[8] = test system: uPtetO-cre in X47 mdaB:: ptetR2; test: Immunoblotting of conditional cre expression; assay type: cell-based, H. pylori; settings: 50 ng/ml ATc, liquid culture, trpA:: uPtetO-cre, both strains
Source text: In order to conditionally express the Cre recombinase in H. pylori two Tet responsive promoters uPtetO1 and uPtetO2 were selected to control the cre expression. They consist of the core urease promoter containing a C to T mutation in the −10 box and one tetO site just downstream of the transcriptional start point. uPtetO2 contains a second tetO site between the −35 and −10 box. A synthetic H. pylori codon usage optimized version of the cre gene was amplified and cloned into the plasmid pTrpA-uPtetO1-GFP and pTrpA-uPtetO2-GFP to replace GFP. Natural transformation of the recipient strain H. pylori X47 mdaB:: ptetR2; trpA:: rpsL-CAT with these plasmids (pTrpA-uPtetO(1/2)-Cre) allowed integration of uPtetO-cre fusions in the chromosome at the trpA locus by homologous recombination. The conditional expression of cre in the constructed strains X47 mdaB:: ptetR2; trpA:: uPtetO-cre was analyzed by immunoblotting. Bacteria were grown in liquid culture the presence of none or 50 ng/ml ATc, respectively.
Immunoassay—SDS-PAGE and Western Blot Analysis.
Bacteria were grown for 24 hours on selective plates or in selective liquid media. Cells were harvested and resuspended in phosphate-buffered saline (PBS) buffer. […] Chemiluminescence was detected using LAS 3000 (Fujifilm)(software Image reader LAS 3000 V2.2)

ptetR2 and uPtetO1-GFP = test: GFP disc diffusion assay; assay type: cell-based, H. pylori; settings: bacterial lawns containing ptetR2 and uPtetO1-GFP; after 24 hours of incubation
[9] = test system: GFP expression in strains expressing TetR or revTetR; test: GFP fluorescence on blood agar plates with ATc; assay type: cell-based, H. pylori; settings: 50 ng/mL ATc in blood agar plates
Experimental: Bacteria were plated onto fresh CBA plates with or without 50 ng/mL ATc and visualized after 24 hr incubation. For Tet-OFF strains, ptetR(2,4,6) bacteria were passaged twice on CBA plates containing ATc prior to the experiments, to allow strains enough time to repress GFP expression.

revTetR = revTetR (Escherichia coli, UniProt P0ACT4); settings: cited from earlier work
Chain of revTetR (P0ACT4 with tags, fused parts or gaps E15A/L17G/T20V/D23E/L25V/I36V): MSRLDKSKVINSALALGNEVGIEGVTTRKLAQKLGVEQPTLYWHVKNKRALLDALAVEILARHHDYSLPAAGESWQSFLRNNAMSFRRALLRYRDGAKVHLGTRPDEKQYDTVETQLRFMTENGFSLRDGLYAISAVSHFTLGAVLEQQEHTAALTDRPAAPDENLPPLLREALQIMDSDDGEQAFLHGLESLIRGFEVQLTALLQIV

C[C@H]1c2cccc(O)c2C(=O)C2=C(O)[C@]3(O)C(=O)C(C(N)=O)=C(O)[C@@H](N(C)C)[C@@H]3[C@@H](O)[C@@H]21 [dox, doxycycline]
time infection could be maintained with dox supplementation ([1]; strain mdaB::ptetR4, urePtetOI): at least 4 weeks | dox concentration at which the strain could be re-isolated ([1]; strain mdaB::ptetR4, urePtetOI): 0.1 to 5 µg/mL | dox concentration at which the strain could be re-isolated ([1]; strain mdaB::ptetR6, urePtetOV): 5 to 20 µg/mL

Cc1c2c(c(O)c3c(O)cccc13)C(=O)[C@]1(O)C(=O)C(C(N)=O)=C(O)[C@@H](N(C)C)[C@@H]1C2 [ATc, Anhydrotetracycline]
ATc concentration of maximal induction relative to the minimal inhibitory concentration (MIC) (H. pylori): 10 fold below | repression of UreB expression ([2]; constructs I, II and V of the Tet-OFF system): Incomplete repression | response of urePtetO to ATc ([2]; strains harbouring ptetR3): did not display response | abundance of the UreB subunit upon the addition of ATc ([2]; strains harbouring the revTetR repressor (Tet-OFF system)): reduced below the detection limit | binding affinity for TetR (TetR): very high binding affinity | ATc concentration sufficient to induce all five urePtetO promoters ([3]; ptetR4 strains): 1 ng/mL | ATc concentrations at which urease activity decreases ([3]; ptetR4 strains): above 25 ng/mL | ATc concentrations at which urease activity decreases ([3]; ptetR6 strains): above 50 ng/mL | ATc concentration at which urease activity is evident ([3]; ptetR6 strains, urePtetOIII, only after 48 hr): 25 ng/mL and 50 ng/mL | ATc concentration at which significant urease activity is detected ([3]; ptetR6 strains, urePtetOIV): 10 ng/mL | ATc concentration at which significant urease activity is detected ([3]; ptetR6 strains, urePtetOV): 5 ng/mL | expression of FliCsyn [4]: showed expression of FliCsyn | urease activity by diffusion of ATc from disc (urease activity): induced | urease activity on addition of ATc ([5]; strains ptetR2, urePtetOI and V, ptetR3, urePtetOIV and ptetR6, urePtetOV): only partially restored | urease activity on addition of ATc ([5]; strains ptetR2, urePtetOII, ptetR3, urePtetOI, II and III): completely restored urease activity | urease activity on addition of ATc ([5]; the other Tet-ON strains): below 10 % of wild-type urease activity | time of maximal GFP activities after the addition of ATc ([6]; ptetR2 and ptetR4 containing bacteria): 16 h | kinetics of GFP induction ([6]; ptetR6 containing bacteria): strong but delayed induction | induction of GFP expression ([7]; ptetR2 uPtetO1, all three recipient loci): 4-9 fold | induction of GFP expression ([7]; ptetR4 uPtetO1, all three recipient loci): 13-80 fold | induction of GFP expression ([7]; ptetR6 uPtetO1, all three recipient loci): 2-5 fold | induction of GFP expression ([7]; uPtetO2 strains, ptetR2): 1.5-3 fold | induction of GFP expression ([7]; uPtetO2 strains, ptetR4): 3-8 fold | induction of GFP expression ([7]; uPtetO2 strains, ptetR6): 3-8 fold | ATc concentration giving maximal GFP activities ([7]; bacteria grown in different concentrations of ATc): 100 ng/mL | GFP activities compared with maximal induction ([7]; induction with 25 ng/ml ATc): 2.4 fold lower | cre expression [8]: induced | GFP expression around ATc discs (ptetR2 and uPtetO1-GFP): halo of GFP expression is evident around each disc | GFP expression (observed fluorescence intensities) ([9]; strains expressing TetR): induction | GFP expression (observed fluorescence intensities) ([9]; strains expressing revTetR): repression | binding affinity for revTetR (revTetR): very high binding affinity

Reference: patent US9115363B2, “Gene expression and eradication system in Helicobacter pylori” (priority 2011, dated 2015)
